The record followed here is patent publication US10150737B2, “Compounds for controlling arthropods” (priority 2013, dated 2018).

Data set [1] deals with Boophilus microplus. Kind of data set: Boophilus microplus - injection test. Format: in vivo. The conditions noted are these: application rate 20 μg/animal; injection into engorged adult female ticks; after 7 days. An outline of the steps:
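Five engorged adult female cattle ticks each received a 1 μl abdominal injection of compound solution in dimethyl sulphoxide. Fertile egg laying was assessed at 7 days, with doubtful eggs incubated about 42 days until hatch. 0% efficacy means all eggs fertile.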

Data set [2] can be described thus: logP determination by HPLC on a reversed-phase column (C18). Format: physicochemical. The conditions noted are these: for logP^a): HPLC-MS method a); for log P: HPLC-MS.
Data set [3] has as its system Musca domestica. The data set can be described thus: Musca domestica test. Format: in vivo. The conditions noted are these: application rate 100 ppm; adult houseflies; after 2 days. The procedure, abridged:
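First, 10 mg compound was taken up in 0.5 ml DMSO and then brought with water to the required concentration. This was applied with sugar solution to a sponge in vessels holding 10 adult flies; kill was assessed after 2 days.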

Data set [4] deals with Phaedon cochleariae. Kind of data set: Phaedon cochleariae - spray test. It is filed as in vivo. The conditions noted are these: larvae on Chinese cabbage leaf discs, after 7 days. The procedure, abridged:
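Mortality of mustard beetle larvae was scored as % at day 7 on Brassica pekinensis leaf discs. Discs had been treated by spraying at the desired concentration, using an acetone/dimethylformamide solution diluted in water with 1000 ppm alkylaryl polyglycol ether, and dried before larvae were added.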

For data set [5], the system named is Myzus persicae. The data set can be described thus: Myzus persicae - spray test. The conditions noted are these: Chinese cabbage leaf discs, after 6 days. It is filed as in vivo. As for the experimental part: Solvent: 78 parts by weight of acetone and 1.5 parts by weight of dimethylformamide
Emulsifier: alkylaryl polyglycol ether
To produce an appropriate active ingredient formulation, 1 part by weight of active ingredient is dissolved using the specified parts by weight of solvent and made up with water containing an emulsifier concentration of 1000 ppm until the desired concentration is attained. To produce further test concentrations, the preparation is diluted with emulsifier-containing water.
Discs of Chinese cabbage leaves (Brassica pekinensis) infested by all stages of the green peach aphid (Myzus persicae) are sprayed with an active ingredient formulation of the desired concentration.
After 6 days, efficacy in % is determined. 100% means that all the aphids have been killed; 0% means that none of the aphids have been killed.

The subject of data set [6] is Ctenocephalides felis. Kind of data set: Ctenocephalides felis - oral test. The conditions noted are these: application rate 100 ppm in citrated cattle blood; after 2 days. Format: in vivo. The procedure, abridged:
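Roughly 20 unfed adult C. felis imbibe compound-dosed citrated cattle blood (DMSO formulation) across parafilm from a cylinder above their gauze chamber; percentage mortality recorded at day 2.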

The subject of data set [7] is Tetranychus urticae. The data set can be described thus: Tetranychus urticae - spray test, OP-resistant. It is filed as in vivo. The conditions noted are these: bean leaf discs, after 6 days. An outline of the steps: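 Mortality (%) read on day 6 after spraying Phaseolus vulgaris leaf discs carrying all mite stages with formulations at the desired concentration. Formulation: active ingredient in acetone plus dimethylformamide, made up with emulsifier-containing water (1000 ppm alkylaryl polyglycol ether).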

For data set [8], the system named is Spodoptera frugiperda. The data set can be described thus: Spodoptera frugiperda - spray test. Format: in vivo. The conditions noted are these: caterpillars on maize leaf discs, after 7 days. An outline of the steps:
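Percent mortality of Spodoptera frugiperda caterpillars scored 7 days after placing them on dried maize leaf discs sprayed at the desired concentration. Spray formulation: compound dissolved in acetone/dimethylformamide, made up with water containing 1000 ppm emulsifier.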

For data set [9], the system named is Lucilia cuprina. The data set can be described thus: Lucilia cuprina test. The conditions noted are these: application rate 100 ppm; L1 larvae; after 2 days. It is filed as in vivo. An outline of the steps: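 Mortality (%) of first-instar blowfly larvae, about 20 per vessel, recorded 2 days after exposure to compound-treated minced horsemeat. Compound dissolved in dimethyl sulphoxide, then water-diluted to the desired concentration.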

In data set [10] the test system is Ctenocephalides felis. Kind of data set: Ctenocephalides felis - in vitro contact tests with adult cat fleas. It is filed as in vivo. The conditions noted are these: application rate 5 μg/cm2 (=500 g/ha); after 48 h; fleas dead or moribund. As for the experimental part: For the coating of the test tubes, 9 mg of active ingredient are first dissolved in 1 ml of acetone p.a. and then diluted to the desired concentration with acetone p.a. 250 μl of the solution are distributed homogeneously on the inner walls and base of a 25 ml test tube by turning and rocking on an orbital shaker (rocking rotation at 30 rpm for 2 h). With 900 ppm active ingredient solution and internal surface area 44.7 cm^2, given homogeneous distribution, an area-based dose of 5 μg/cm^2 is achieved.
After the solvent has evaporated off, the tubes are populated with 5-10 adult cat fleas (Ctenocephalides felis), sealed with a perforated plastic lid and incubated in a horizontal position at room temperature and ambient humidity. After 48 h, efficacy is determined. To this end, the test tubes are stood upright and the fleas are knocked to the base of the tube. Fleas which remain motionless at the base or move in an uncoordinated manner are considered to be dead or moribund.
100% efficacy means that all the fleas were dead or moribund. 0% efficacy means that no fleas were harmed.

Setting [11] is: reversed-phase column (C18), Table I-T3.

Turning to `Cc1cc(C(F)(C(F)(F)F)C(F)(F)F)cc(C)c1-n1cc(-c2cncc(C(=O)NC3CC3)c2)cn1` [I-T3-7], in data set [1], the “efficacy (laying of fertile eggs)” value turned out to be 100%. In addition, the “logP^a)” value in [2] and in [2] (setting [11]) was 3.4 in each case. The “efficacy (kill)” value turned out to be 80% in data set [3], 100% in data set [6] and 100% in data set [9]. In addition, the efficacy in [4] (application rate 500 g/ha), in [5] (application rate 500 g/ha), in data set [7] (application rate 500 g/ha), in data set [8] (application rate 500 g/ha) and in data set [10] was 100% in each case.

In the case of `Cc1cc(C(F)(C(F)(F)F)C(F)(F)F)cc(C)c1-n1cc(-c2cccc(C(=O)NC3CC3)c2)cn1` [I-T3-29], in [1], the “efficacy (laying of fertile eggs)” value came out at 100%. Also, the “logP^a)” value in data set [2] and in data set [2] (setting [11]) was 3.3 each time. For the same compound, the “efficacy (kill)” value in data set [3], in data set [6] and in data set [9] was 100% throughout. Besides, the efficacy in data set [4] (application rate 500 g/ha) came to 100%; in data set [5] (application rate 500 g/ha), 90%; in data set [7] (application rate 500 g/ha), 100%; in data set [8] (application rate 500 g/ha) it was 100%; in data set [10], 100%.

As for `CCc1cc(C(F)(C(F)(F)F)C(F)(F)F)cc(C)c1-n1cc(-c2cncc(C(=O)NC3(C#N)CC3)c2)cn1` [I-T3-76], the “efficacy (laying of fertile eggs)” value in [1] turned out to be 100%. For the same compound, the “logP^a)” value in data set [2] and in data set [2] (setting [11]) was 3.4 each time. Also, the “efficacy (kill)” value came to 90% in data set [3], 100% in data set [6] and 90% in data set [9]. The efficacy in [4] (application rate 500 g/ha) amounted to 100%; in data set [5] (application rate 100 g/ha), 90%; in [7] (application rate 500 g/ha), 100%; in [8] (application rate 500 g/ha), 100%.

`CCc1cc(C(F)(C(F)(F)F)C(F)(F)F)cc(C)c1-n1cc(-c2cncc(C(=O)NC3CC3)c2)cn1` [I-T3-77]: the “efficacy (laying of fertile eggs)” value in [1] was 100%. The “logP^a)” value in data set [2] and in data set [2] (setting [11]) was 3.4 throughout. In addition, the “efficacy (kill)” value in [3], in data set [6] and in [9] was 100% each time. The efficacy in [4] (application rate 500 g/ha), in [5] (application rate 100 g/ha), in data set [7] (application rate 500 g/ha) and in data set [8] (application rate 500 g/ha) was 100% throughout.

On to `Cc1cc(C(F)(C(F)(F)F)C(F)(F)F)cc(C(F)(F)F)c1-n1cc(-c2ccc(Cl)c(C(=O)NC3CSC3)c2)cn1` [I-T3-85], for which the “efficacy (laying of fertile eggs)” value in data set [1] is 100%. The “logP^a)” value in [2] and in [2] (setting [11]) was 4.7 each time. The “efficacy (kill)” value in [3], in data set [6] and in data set [9] was 100% each time. Besides, the efficacy was determined as 100% in data set [4] (application rate 100 g/ha); 90% in data set [5] (application rate 100 g/ha); 100% in data set [7] (application rate 100 g/ha); 100% in [8] (application rate 100 g/ha); 100% in data set [10].

For `N#CC1(NC(=O)c2cc(-c3cnn(-c4c(Cl)cc(OC(F)(F)F)cc4Cl)c3)ccc2Cl)CC1` [I-T3-87], the “efficacy (laying of fertile eggs)” value in data set [1] is recorded as 100%. Besides, the “logP^a)” value in data set [2] and in data set [2] (setting [11]) was 3.6 in each case. The “efficacy (kill)” value in data set [3], in [6] and in [9] was 100% throughout. The efficacy in data set [4] (application rate 100 g/ha) was 100%; in data set [5] (application rate 100 g/ha), 90%; in [7] (application rate 100 g/ha), 100%; in data set [8] (application rate 100 g/ha) it was 100%; in data set [10], 100%.

A word on the log P: it is the decadic logarithm of the partition coefficient of the neutral form, usually between octanol and water. With `Cc1ncc(-c2cnn(-c3c(Cl)cc(C(F)(F)F)cc3Cl)c2)cc1C(=O)NC1CC1` [I-T3-127], the “efficacy (laying of fertile eggs)” value in data set [1] stood at 100%. The “logP^a)” value in data set [2] (reversed-phase column (C18)) worked out at 2.5. For the same compound, the “log P” value in data set [2] (setting [11]) was determined as 2.5. For the same compound, the efficacy in data set [4] (application rate 100 g/ha), in [5] (application rate 100 g/ha), in data set [7] (application rate 100 g/ha) and in data set [10] was 100% in each case. Further, the entries for the “efficacy (kill)” value in data set [6] and in data set [9] were 100% and 90%, respectively.

Take `Cc1ncc(-c2cnn(-c3c(Cl)cc(C(F)(F)F)cc3Cl)c2)cc1C(=O)N(C)C1CC1` [I-T3-128]: in data set [1], the “efficacy (laying of fertile eggs)” value was 100%. Moreover, the “logP^a)” value in [2] (reversed-phase column (C18)) amounted to 2.8. Moreover, the lipophilicity (log P) in data set [2] (setting [11]) stood at 2.8. In addition, the efficacy in data set [4] (application rate 100 g/ha), in data set [5] (application rate 100 g/ha) and in [10] was 100% throughout. Besides, in data set [6], the “efficacy (kill)” value turned out to be 100%.

For `Cc1ncc(-c2cnn(-c3c(Cl)cc(C(F)(F)F)cc3Cl)c2)cc1C(=O)NC1(C#N)CC1` [I-T3-129], the “efficacy (laying of fertile eggs)” value in data set [1] is given as 100%. Besides, the “logP^a)” value in data set [2] (reversed-phase column (C18)) is listed as 2.6. In addition, in data set [2] (setting [11]), the “log P” value is recorded as 2.6. The “efficacy (kill)” value in [3] is on record as 80%; in data set [6], 100%. The efficacy in [4] (application rate 100 g/ha), in data set [5] (application rate 100 g/ha), in data set [7] (application rate 100 g/ha) and in data set [10] was 100% in each case.

Consider `Cc1ncc(-c2cnn(-c3c(Cl)cc(C(F)(F)F)cc3Cl)c2)cc1C(=O)N(C)C1(C#N)CC1` [I-T3-132], for which the “efficacy (laying of fertile eggs)” value in data set [1] is 100%. Further, the “logP^a)” value in data set [2] (reversed-phase column (C18)) is on record as 2.9. The “log P” value in data set [2] (setting [11]) is on record as 2.9. Also, the efficacy in data set [4] (application rate 100 g/ha) was 100%; in [5] (application rate 100 g/ha), 90%; in [7] (application rate 100 g/ha), 100%; in data set [10], 100%. In addition, in [6], the “efficacy (kill)” value was 100%.

For `CCN(C(=O)c1cc(-c2cnn(-c3c(Cl)cc(C(F)(F)F)cc3Cl)c2)cnc1Cl)C1CC1` [I-T3-145], the “efficacy (laying of fertile eggs)” value in data set [1] amounted to 100%. Besides, the “logP^a)” value in data set [2] (reversed-phase column (C18)) is 3.8. For the same compound, the “log P” value in data set [2] (setting [11]) amounted to 3.8. Also, the “efficacy (kill)” value in data set [3] came to 90%; in data set [6], 100%; in [9] it was 100%. Moreover, the efficacy in data set [4] (application rate 100 g/ha) is given as 100%; in data set [5] (application rate 100 g/ha), 90%; in [7] (application rate 100 g/ha) it was 100%; in [8] (application rate 100 g/ha), 100%; in data set [10], 100%.
